# According to ChEMBL document CHEMBL4610120, “New Broad-Spectrum Antibiotics Containing a Pyrrolobenzodiazepine Ring with Activity against Multidrug-Resistant Gram-Negative Bacteria” (J Med Chem, 2020):
# Activity calls are given as the source filed them. The rule behind the calls is not given here.
# Legend:
# [1] = tested on: Acinetobacter baumannii; assay: Antimicrobial activity against multidrug-resistant Acinetobacter baumannii NCTC 13424 in presence of efflux pump inhibitor CCCP by microdilution broth method; assay type: functional
# [2] = Selectivity ratio of cytotoxicity against human WI38 cells to MIC for methicillin sensitive Staphylococcus aureus NCTC 6571; assay type: toxicity, cell-based
# [3] = tested on: Klebsiella pneumoniae; assay: Ratio of MIC for multidrug-resistant Klebsiella pneumoniae NCTC 13368-7-R1 measured after 10 passages to MIC for multidrug-resistant Klebsiella pneumoniae NCTC 13368-7-R1 measured after 10 passages in presence of efflux pump inhibitor PAbetaN; assay type: functional
# [4] = tested on: Pseudomonas aeruginosa; assay: Antimicrobial activity against multidrug-resistant Pseudomonas aeruginosa NCTC 13437 in presence of efflux pump inhibitor PAbetaN by microdilution broth method; assay type: functional
# [5] = tested on: Enterococcus faecium; assay: Antibacterial activity against vancomycin resistant Enterococcus faecium NCTC 12204 by microdilution broth method; assay type: functional
# [6] = tested on: Acinetobacter baumannii; assay: Antimicrobial activity against multidrug-resistant Acinetobacter baumannii NCTC 13424 in presence of efflux pump inhibitor PAbetaN by microdilution broth method; assay type: functional
# [7] = tested on: Klebsiella pneumoniae; assay: Antibacterial activity against multidrug-resistant Klebsiella pneumoniae NCTC 13368-7-R1 measured after 10 passages by microdilution broth method; assay type: functional
# [8] = tested on: Klebsiella pneumoniae; assay: Antimicrobial activity against multidrug-resistant Klebsiella pneumoniae 51851 by microdilution broth method; assay type: functional
# [9] = tested on: Klebsiella pneumoniae; assay: Antimicrobial activity against multidrug-resistant Klebsiella pneumoniae 16 in presence of efflux pump inhibitor CCCP by microdilution broth method; assay type: functional
# [10] = tested on: Klebsiella pneumoniae; assay: Antimicrobial activity against multidrug-resistant Klebsiella pneumoniae NCTC 13368 in presence of efflux pump inhibitor PAbetaN by microdilution broth method; assay type: functional
# [11] = biological target: T1, Cell division inhibitor SulA (Escherichia coli K-12) (UniProt P0AFZ5); assay: Induction of Escherichia coli K12 MG1655 sulA promotor measured at 30 mins interval for 20 hrs by fluorescence assay relative to control; settings: Escherichia coli str. K-12 substr. MG1655
# T1 sequence (whole entry): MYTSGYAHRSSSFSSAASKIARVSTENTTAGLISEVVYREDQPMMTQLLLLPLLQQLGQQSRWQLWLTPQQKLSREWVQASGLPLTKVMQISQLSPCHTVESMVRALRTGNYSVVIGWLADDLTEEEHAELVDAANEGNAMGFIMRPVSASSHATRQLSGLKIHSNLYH
# [12] = tested on: Klebsiella pneumoniae; assay: Ratio of MIC for multidrug-resistant Klebsiella pneumoniae NCTC 13368 to MIC for multidrug-resistant Klebsiella pneumoniae NCTC 13368 in presence of efflux pump inhibitor PAbetaN; assay type: functional
# [13] = tested on: Acinetobacter baumannii; assay: Antimicrobial activity against Acinetobacter baumannii ATCC 17978 by microdilution broth method; assay type: functional
# [14] = tested on: DNA; assay: Stabilization of 5'-FAM-TAT-ATA-TAG-ATA-TTT-TTT-TAT-CTA-TAT-ATA-3'-TAMRA DNA (unknown origin) assessed as reduction in change in melting temperature at 1:1 to 5:1 ligand to DNA ratio measured after 3 hrs by FRET-based assay relative to control; assay type: ADME, nucleic-acid assay
# [15] = tested on: Escherichia coli; assay: Antimicrobial activity against multidrug-resistant Escherichia coli LEC001 by microdilution broth method; assay type: functional
# [16] = tested on: Klebsiella pneumoniae; assay: Antimicrobial activity against multidrug-resistant Klebsiella pneumoniae 16 in presence of efflux pump inhibitor PAbetaN by microdilution broth method; assay type: functional
# [17] = Selectivity ratio of cytotoxicity against human WI38 cells to MIC for vancomycin sensitive Enterococcus faecalis NCTC 775; assay type: toxicity, cell-based
# [18] = Antimicrobial activity against multidrug-resistant Burkholderia cepacia complex NCTC 17765 by microdilution broth method; assay type: functional
# [19] = tested on: Klebsiella pneumoniae; assay: Bactericidal activity against multidrug-resistant Klebsiella pneumoniae NCTC 13368 assessed as reduction in viable bacterial count at 4 times MIC measured after 6 hrs by Miles-Misra dilution method based time-kill assay; assay type: functional, organism-based
# [20] = tested on: Escherichia coli; assay: Antimicrobial activity against multidrug-resistant Escherichia coli CFI_017_VIM4 by microdilution broth method; assay type: functional
# [21] = tested on: Klebsiella pneumoniae; assay: Antimicrobial activity against multidrug-resistant Klebsiella pneumoniae 16 by microdilution broth method; assay type: functional
# [22] = tested on: Escherichia coli; assay: Antimicrobial activity against multidrug-resistant Escherichia coli CFI_161_NDM_5_OXA_181 by microdilution broth method; assay type: functional
# [23] = tested on: Klebsiella pneumoniae; assay: Antimicrobial activity against multidrug-resistant Klebsiella pneumoniae NCTC 13368 in presence of efflux pump inhibitor CCCP by microdilution broth method; assay type: functional
# [24] = tested on: DNA; assay: Stabilization of 5'-FAM-TAT-AGA-TAT-AGA-TAT-TTT-ATA-TCT-ATA-TCT-ATA-3'-TAMRA DNA (unknown origin) assessed as reduction in change in melting temperature at 1:1 to 5:1 ligand to DNA ratio measured after 3 hrs by FRET-based assay relative to control; assay type: ADME, nucleic-acid assay
# [25] = Antimicrobial activity against multidrug-resistant Burkholderia cepacia complex NCTC 10743 by microdilution broth method; assay type: functional
# [26] = tested on: Burkholderia multivorans; assay: Antimicrobial activity against multidrug-resistant Burkholderia multivorans C1576 by microdilution broth method; assay type: functional
# [27] = tested on: Pseudomonas aeruginosa; assay: Antimicrobial activity against Pseudomonas aeruginosa PAO1 in presence of membrane permeabilizer PMBN by microdilution broth method; assay type: functional
# [28] = Antimicrobial activity against multidrug-resistant Burkholderia cepacia complex CEP509 by microdilution broth method; assay type: functional
# [29] = tested on: Staphylococcus aureus; assay: Antibacterial activity against methicillin resistant Staphylococcus aureus NCTC 13616 by microdilution broth method; assay type: functional
# [30] = biological target: DNA gyrase (Escherichia coli, UniProt P0AES6+P0AES4); assay: Inhibition of Escherichia coli DNA gyrase using relaxed pNO1 as substrate by gel based fluorescence assay; assay type: protein-complex assay
# [31] = Selectivity ratio of cytotoxicity against human WI38 cells to MIC for multidrug-resistant Acinetobacter baumannii AYE; assay type: toxicity, cell-based
# [32] = tested on: Burkholderia cenocepacia; assay: Antimicrobial activity against multidrug-resistant Burkholderia cenocepacia K56-2 by microdilution broth method; assay type: functional
# [33] = biological target: T2, Protein RecA (Escherichia coli K-12) (UniProt P0A7G6); assay: Induction of Escherichia coli K12 MG1655 recA promotor measured at 30 mins interval for 20 hrs by fluorescence assay relative to control; settings: Escherichia coli str. K-12 substr. MG1655
# T2 sequence (whole entry): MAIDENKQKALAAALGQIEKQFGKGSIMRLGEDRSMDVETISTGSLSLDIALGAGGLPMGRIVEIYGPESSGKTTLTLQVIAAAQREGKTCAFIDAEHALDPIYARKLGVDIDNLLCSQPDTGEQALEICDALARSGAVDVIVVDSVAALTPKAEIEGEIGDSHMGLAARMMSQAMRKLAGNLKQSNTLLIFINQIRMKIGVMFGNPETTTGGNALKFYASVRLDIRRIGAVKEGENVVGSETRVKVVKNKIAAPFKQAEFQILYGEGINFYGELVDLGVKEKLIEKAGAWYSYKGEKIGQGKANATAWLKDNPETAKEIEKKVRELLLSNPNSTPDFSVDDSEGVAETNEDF
# [34] = Selectivity ratio of cytotoxicity against human WI38 cells to MIC for methicillin resistant Staphylococcus aureus NCTC 13277; assay type: toxicity, cell-based
# [35] = tested on: Acinetobacter baumannii; assay: Bactericidal activity against Acinetobacter baumannii ATCC 17978 assessed as reduction in viable bacterial count at 4 times MIC measured up to 24 hrs by Miles-Misra dilution method based time-kill assay; assay type: functional, organism-based
# [36] = tested on: Acinetobacter baumannii; assay: Bactericidal activity against Acinetobacter baumannii NCTC 13424 assessed as reduction in viable bacterial count at 4 times MIC measured after 24 hrs by Miles-Misra dilution method based time-kill assay; assay type: functional, organism-based
Structure (SMILES),MIC [1],selectivity ratio [2],MIC [4],MIC [5],MIC [6],MIC [8],MIC [9],MIC [10],fold change (FC) [11],Ratio [12],MIC [13],fold change (FC) [14],MIC [15],MIC [16],selectivity ratio [17],MIC [18],MIC [20],MIC [21],MIC [22],MIC [23],also measured
COc1cc2c(cc1OCCCC(=O)Nc1cc(C(=O)Nc3ccc4oc(C(=O)N5CCSCC5)cc4c3)n(C)c1)N=C[C@@H]1CCCN1C2=O,1 µg/mL,100,> 32 µg/mL,0.03 µg/mL,2 µg/mL,4 µg/mL,0.12 to 1 µg/mL,8 µg/mL,6 to 7,4,2 µg/mL,3 to 4,2 µg/mL,2 µg/mL,100,1 µg/mL,2 µg/mL,1 µg/mL,1 µg/mL,> 32 µg/mL,Ratio [3]: 4; MIC [7]: 128 µg/mL; Activity [19]: Active; fold change (FC) [24]: 3 to 4; MIC [25]: 16 µg/mL; MIC [26]: 16 µg/mL; MIC [27]: 0.25 to 8 µg/mL; MIC [28]: 8 µg/mL; MIC [29]: 2 µg/mL; IC50 [30]: Nd(Insoluble); selectivity ratio [31]: 10; MIC [32]: 1 µg/mL; fold change (FC) [33]: 8 to 10; selectivity ratio [34]: 100
COc1cc2c(cc1OCCCC(=O)Nc1cc(C(=O)Nc3ccc4sc(C(=O)N(C)C)cc4c3)n(C)c1)N=C[C@@H]1CCCN1C2=O,0.25 µg/mL,100,16 µg/mL,0.03 µg/mL,0.25 µg/mL,2 µg/mL,0.06 to 0.5 µg/mL,0.5 µg/mL,6 to 7,4,0.5 to 1 µg/mL,3 to 4,1 µg/mL,2 µg/mL,100,0.125 µg/mL,1 µg/mL,0.25 to 1 µg/mL,0.5 µg/mL,2 µg/mL,Activity [35]: Active; fold change (FC) [24]: 3 to 4; MIC [25]: 1 to 2 µg/mL; MIC [26]: 1 µg/mL; MIC [27]: 2 to 16 µg/mL; MIC [28]: 2 µg/mL; MIC [29]: 0.03 µg/mL; IC50 [30]: Nd(Insoluble); selectivity ratio [31]: 10; MIC [32]: 2 µg/mL; Activity [36]: inactive; fold change (FC) [33]: 8 to 10; selectivity ratio [34]: 100
